According to paper PMC10957897, “An evolutionary mechanism to assimilate new nutrient sensors into the mTORC1 pathway” (Nature Communications, 2024):
Where a chain is given by its changes, count along the chain named.

How the values were obtained:
[1] = target: T1, Unmet expectations (Unmet; CG11596) (Drosophila melanogaster, UniProt Q9I7X6); assay: competition with [3H]SAM binding to purified protein on anti-FLAG beads; settings: 5 μM [3H]SAM, pH 7.4, on ice
T1 construct: FLAG-tagged, tag kept; pRK5 vector, expressed in suspension HEK-293T cells
T1 sequence (Q9I7X6 1-456): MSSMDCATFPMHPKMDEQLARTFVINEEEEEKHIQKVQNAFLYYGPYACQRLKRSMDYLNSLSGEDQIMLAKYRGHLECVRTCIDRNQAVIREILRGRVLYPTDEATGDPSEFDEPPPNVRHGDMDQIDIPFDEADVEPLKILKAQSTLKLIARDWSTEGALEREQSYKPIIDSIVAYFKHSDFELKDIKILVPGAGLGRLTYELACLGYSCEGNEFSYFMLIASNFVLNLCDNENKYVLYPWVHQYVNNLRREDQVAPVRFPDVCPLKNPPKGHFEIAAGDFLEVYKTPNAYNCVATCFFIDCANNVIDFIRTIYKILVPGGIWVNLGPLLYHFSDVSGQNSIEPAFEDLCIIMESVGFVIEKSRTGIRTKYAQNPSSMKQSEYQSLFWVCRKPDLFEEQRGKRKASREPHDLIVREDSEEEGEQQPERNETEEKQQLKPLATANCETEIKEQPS

[2] = target: T2, Unmet expectations (Unmet; CG11596) (Drosophila melanogaster, UniProt Q9I7X6, E30A); assay: [3H]SAM binding to purified protein on anti-FLAG beads; settings: 5 μM [3H]SAM with or without unlabeled SAM, pH 7.4, on ice; labelled compound
T2 construct: FLAG-tagged, tag kept; pRK5 vector, expressed in suspension HEK-293T cells
T2 sequence (Q9I7X6 1-456 E30A): T1 sequence (Q9I7X6 1-456) with E30A

Row | Compound | competition with [3H]SAM binding to purified protein on anti-FLAG beads [1] | SAM-binding capacity [2]
1 | Nc1ncnc2c1ncn2[C@@H]1O[C@H](CSCC[C@H](N)C(=O)O)[C@@H](O)[C@H]1O [SAH] | it readily competes with labeled SAM for binding to Unmet | –
2 | C[S+](CC[C@H](N)C(=O)O)C[C@H]1O[C@@H](n2cnc3c(N)ncnc32)[C@H](O)[C@@H]1O (stereo partly drawn) [SAM] | – | The E30A mutant of Unmet does not interact with dGATOR2 but maintains its SAM-binding capacity
3 | Nc1ncnc2c1ncn2[C@@H]1O[C@H](C[C@@H](N)CC[C@H](N)C(=O)O)[C@@H](O)[C@H]1O [sinefungin] | also competes with labeled SAM for binding to Unmet | –
